In patent US20190336583A1, “COMPOSITIONS AND METHODS FOR TREATING IRON OVERLOAD” (priority 2017, published 2019):

Assays:
serum iron levels [1] = test: Effect of subcutaneous hepcidin on serum iron levels in mice (Example 1); assay type: in vivo; details: 50 μg dose subcutaneously, p<0.05
Text: A study was designed to evaluate the effect of subcutaneous doses of hepcidin on serum iron levels in mice (n=6-7/group).

[2] = Expanded acute toxicity study (NOAEL) in Sprague Dawley rats (Example 4); details: rat, in vivo
Procedure: (§1) Hepcidin was evaluated in two expanded, acute studies in rats and dogs. These studies were conducted to determine the no-observed adverse effect level (NOAEL). The NOAEL was determined to be 5 mg/kg/day in dogs due to various clinical and histopathological observations.

serum iron levels [3] = test: Effect of 1, 5, 10 and 50 mg subcutaneous hepcidin on serum iron levels in normal rats (Example 3); assay type: in vivo
Procedure: A study was designed to evaluate doses of 1, 5, 10, and 50 mg of hepcidin delivered subcutaneously and their effect on serum iron levels in normal rats (n=7/group).

serum iron levels [4] = test: Effect of 50, 100 and 200 μg subcutaneous hepcidin on serum iron levels in mice (Example 2); assay type: in vivo; details: for serum iron levels compared to vehicle: p<0.01
Procedure: Conversely, 50 μg and 100 μg doses were elevated (p<0.01) compared to the vehicle at 24 hours post dose. The elevated levels of serum iron could be due to the system's reaction to the clearance of hepcidin. […] Mortality was likely related to the stress of the blood collection. Serum iron levels normalized 72 hours post dose.

[5] = normal rats, any dose level
serum iron levels [6] = test: Serum iron levels in expanded acute study in Sprague Dawley rats (Example 4)
Procedure: A study was designed to evaluate doses of 5, 25, and 50 mg/kg of hepcidin (human equivalent dose of 0.8, 4, 8 mg/kg, respectively), delivered SC to Sprague Dawley rats (n=9/sex/group).

[7] = Expanded acute toxicity study (NOAEL), single subcutaneous dose in dogs (Example 4); details: dog, in vivo
Procedure: as §1

CC[C@H](C)[C@@H]1NC(=O)[C@@H](NC(=O)[C@@H](NC(=O)[C@@H]2CCCN2C(=O)[C@H](Cc2ccccc2)NC(=O)[C@H](Cc2c[nH]cn2)NC(=O)[C@@H](NC(=O)[C@@H](N)CC(=O)O)[C@@H](C)O)[C@@H](C)CC)CSSC[C@@H](C(=O)N[C@@H](CCCCN)C(=O)N[C@H](C(=O)O)[C@@H](C)O)NC(=O)[C@@H]2CSSC[C@@H]3NC(=O)[C@@H]4CSSC[C@H](NC(=O)[C@H](Cc5ccccc5)NC1=O)C(=O)N[C@@H](CSSC[C@H](NC(=O)[C@H](CCCCN)NC(=O)[C@H](CO)NC(=O)[C@H](CCCNC(=N)N)NC(=O)[C@H](Cc1c[nH]cn1)NC3=O)C(=O)NCC(=O)N[C@@H](CCSC)C(=O)N2)C(=O)NCC(=O)N4 [hepcidin]
decrease in serum iron levels compared to vehicle (average) (serum iron levels [1]; 4 hours post dose): 40%
decrease in serum iron levels compared to vehicle (average) (serum iron levels [1]; 24 hours post dose): 15%
toxicokinetic (TK) effect, male vs female [2]: comparable for both sexes
time at which serum iron levels returned to pre-dose levels (serum iron levels [3]; normal rats, 5 mg dose, post dose): 48 h
return of serum iron levels to pre-dose levels (serum iron levels [3]; normal rats, 10 mg and 50 mg dose groups, 72 hours post dose): did not return to pre-dose levels
effect on serum iron levels (serum iron levels [3]; normal rats, 50 mg, at 72 hours): still demonstrated an effect
serum iron levels (serum iron levels [3]; normal rats, 1, 5, 10 and 50 mg subcutaneously, all dose levels): significant decrease in serum iron levels
time of lowest serum iron concentrations (serum iron levels [3]; normal rats, post dose, all three doses): 4 h
serum iron levels compared to vehicle (serum iron levels [4]; mice, 50 μg and 100 μg doses, 24 hours post dose): elevated
serum iron levels compared to vehicle (serum iron levels [4]; mice, 50, 100 and 200 μg subcutaneously (all three doses), 4 hours post dose): significant decrease in serum iron levels
serum iron levels (serum iron levels [4]; mice, 72 hours post dose): normalized
mortality (serum iron levels [4]; mice, following the 4-hour blood collection, likely related to the stress of the blood collection): One mouse died
lethargy [5]: No lethargy was observed
average serum iron levels compared to vehicle and pre-dose levels (serum iron levels [6]; Sprague Dawley rats, 5, 25 and 50 mg/kg SC, all doses): significantly decreased
time of lowest serum iron level (serum iron levels [6]; Sprague Dawley rats, post dose, all three doses): 4 h
administration site microscopic findings, Day 15: cystic space [7]: cystic space
administration site microscopic findings, Day 15: fibrosis [7]: fibrosis
other adverse reactions [7]: hunched posture, soft feces, gross pathology finding of “thick,” and subcutaneous fibrosis, mixed cell infiltration, and cysts present at recovery period
administration site microscopic findings, Day 4 ([7]; 25 mg/kg): mixed cell infiltration in the administration site
